Data: ChEMBL document CHEMBL5729738, “Inhibitors of RAF kinases” (2023)

Target: RAF proto-oncogene serine/threonine-protein kinase (Homo sapiens, UniProt P04049)
Experiment: Kinase Assay: Protein kinase assay: Assay platform was used to measure kinase/inhibitor interactions as described previously (Anastassiadis et al., 2011). In brief, for each reaction, kinase and substrate were mixed in a buffer containing 20 mM HEPES (pH 7.5), 10 mM MgCl2, 1 mM EGTA, 0.02% Brij35, 0.02 mg/mL BSA, 0.1 mM Na3VO4, 2 mM DTT, and 1% DMSO. All compounds were solubilized in DMSO. Compounds were then added to each reaction mixture via acoustic dispense using an ECHO 550 nanoliter dispenser. For human RAF1 testing, human MEK1 (K97R) was used as a substrate at a concentration of 3 micromolar, with a final ATP concentration of 10 micromolar. For human BRAF testing, human MEK1 (K97R) was used as a substrate at 1 micromolar concentration, with a final ATP concentration of 25 micromolar. […] After a 20-min incubation, ATP (Sigma-Aldrich, St. Louis, Mo. 63178) and [g33P] ATP (specific activity 10 microCi/microliter) purchased at PerkinElmer (Boston, Mass., 02118 Cat #BLU 003H250UC) were added at a final total concentration of 10 mM. Reactions were carried out at room temperature for 2 hr and spotted onto P81 ion exchange cellulose chromatography paper (Reaction Biology). Filter paper was washed in 0.75% phosphoric acid to remove unincorporated ATP. The percent remaining kinase activity relative to a vehicle-containing (DMSO) kinase reaction was calculated for each kinase/inhibitor pair. […]

RAF proto-oncogene serine/threonine-protein kinase, sequence (P04049 whole entry): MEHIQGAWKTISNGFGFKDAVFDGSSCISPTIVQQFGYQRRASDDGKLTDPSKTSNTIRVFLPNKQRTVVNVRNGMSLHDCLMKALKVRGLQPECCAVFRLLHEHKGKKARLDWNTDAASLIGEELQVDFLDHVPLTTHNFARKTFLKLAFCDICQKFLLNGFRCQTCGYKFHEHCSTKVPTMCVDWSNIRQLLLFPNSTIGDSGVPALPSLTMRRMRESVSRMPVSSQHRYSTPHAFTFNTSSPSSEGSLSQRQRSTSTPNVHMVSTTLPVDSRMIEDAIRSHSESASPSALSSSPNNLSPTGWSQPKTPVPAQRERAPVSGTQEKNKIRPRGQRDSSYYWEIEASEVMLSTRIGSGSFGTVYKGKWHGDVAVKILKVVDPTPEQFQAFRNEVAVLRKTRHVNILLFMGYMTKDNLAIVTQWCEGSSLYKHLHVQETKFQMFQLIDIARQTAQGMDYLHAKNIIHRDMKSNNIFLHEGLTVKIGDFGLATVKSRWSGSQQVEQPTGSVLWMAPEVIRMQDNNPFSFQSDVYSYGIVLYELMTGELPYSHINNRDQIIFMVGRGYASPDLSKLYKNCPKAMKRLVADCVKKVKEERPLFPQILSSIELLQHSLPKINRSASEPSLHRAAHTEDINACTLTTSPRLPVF

Compound CNc1ncc2cc(-c3cc(NC(=O)N4CC[C@H](C(F)(F)F)C4)c(F)cc3C)c(C)nc2n1 has an IC50 of less than 10 nM.
